# Laboratory results taken from US12145913B2, “Inhibition of Olig2 activity” (Curtana Pharmaceuticals, Inc., priority 2016, dated 2024).
# Test system: GBM8 human glioblastoma cells
# Experiment: GBM8 viability assay (Cell Titer Glo)
# Assay type: cell-based
# Conditions: 72 h, luminescence
# Method: Cell culture medium was prepared from a NSA proliferation kit (Neurocult) and NeuroCult supplements (Stemcell Tech Cat. #05751) and treated with 20 μL of 10 μg/mL rh EGF, 10 μL of 10 μg/mL rh bFGF and 10 μL of 0.2% Heparin. In this medium, human glioblastoma cells were cultured in ultra-low attachment tissue culture flasks until 1×10^6 cells ml was achieved (GBM4 and GBM8 are distinct neurosphere cell cultures derived from these human patient tissues). GBM4 and GBM8 cells were dissociated and 10 mL of media containing 4000 human glioblastoma cells per 90 μL were transferred to an ultra-low binding 96-well plate and incubated at 37° C. overnight. On the following day, 10 μL of a 1% DMSO solution of test compound in assay medium was added to wells containing the cell suspension and the mixture incubated at 37° C. for 3 days. At this time, the plate was removed from the incubator and allowed to reach room temperature. After about 30 minutes, 50 μL of Cell Titer Glo solution was added to each well and the plate shaken for 1 minute at low speed. After 10 minutes luminescence was recorded using a Tecan Safire2 reader.
# Reduction in luminescence compared to DMSO only control wells was used to determine the percentage inhibition of cell growth. IC50s were calculated using the % inhibition of luminescence for serial dilutions of compounds fitted to a 4-parameter fit within the Prism (San Diego) curve fitting program. Tables 1 (compounds 3-188) and 2 (compounds 190-212) show the GBM4 IC50 and GBM8 IC50 for compounds described herein.
Compound,"IC50 (Table 1, 3 days incubation) [nM]","IC50 (Table 2, 3 days incubation) [nM]"
"CNCCCCNc1cc(C)nc(NC(=O)Nc2ccc3cnccc3c2)n1 [Compound 65, 1-(isoquinolin-6-yl)-3-(4-methyl-6-((4-(methylamino)butyl)amino)pyrimidin-2-yl)urea]",< 500,
Cc1cc(NCCCc2ccccn2)nc(NC(=O)Nc2ccc3ccccc3c2)n1 [Compound 16],< 500,
"CC(C)c1cc(NCCCN(C)C)nc(NC(=O)Nc2ccc3ccccc3c2)n1 [Compound 188, 1-(4-((3-(dimethylamino)propyl)amino)-6-isopropylpyrimidin-2-yl)-3-(naphthalen-2-yl)urea]",500 to 5000,
"Cc1cc(NCCNS(C)(=O)=O)nc(NC(=O)Nc2ccc3ccncc3c2)n1 [Compound 120, N-(2-((2-(3-(isoquinolin-7-yl)ureido)-6-methylpyrimidin-4-yl)amino)ethyl)methanesulfonamide]",< 500,
"Cc1cc(NCCc2ncc[nH]2)nc(NC(=O)Nc2ccc3ccccc3c2)n1 [Compound 22, 1-(4-((2-(1H-imidazol-2-yl)ethyl)amino)-6-methylpyrimidin-2-yl)-3-(naphthalen-2-yl)urea]",< 500,
"Cc1cc(NCC(F)(F)CO)nc(NC(=O)Nc2ccc3ccccc3c2)n1 [Compound 27, 1-(4-((2,2-difluoro-3-hydroxypropyl)amino)-6-methylpyrimidin-2-yl)-3-(naphthalen-2-yl)urea]",< 500,
"CCNc1cc(C)nc(NC(=O)Nc2ccc(-c3ccccc3)cc2)n1 [Compound 126, 1-([1,1′-biphenyl]-4-yl)-3-(4-(ethylamino)-6-methylpyrimidin-2-yl)urea]",< 500,
Cc1cc(NCC(C)O)nc(NC(=O)Nc2ccc3ccccc3c2)n1 (centres unmarked) [Compound 14],< 500,
"CN(C)CCCNc1ccnc(NC(=O)Nc2ccc3ccccc3c2)n1 [Compound 160, 1-(4-((3-(dimethylamino)propyl)amino)pyrimidin-2-yl)-3-(naphthalen-2-yl)urea]",< 500,
Cc1cc(NCC2CCCN(C)C2)nc(NC(=O)Nc2ccc3ccccc3c2)n1 (centres unmarked) [Compound 11],500 to 5000,
"Cc1cc(NO)nc(NC(=O)Nc2ccc3ccccc3c2)n1 [Compound 45, 1-(4-(hydroxyamino)-6-methylpyrimidin-2-yl)-3-(naphthalen-2-yl)urea]",< 500,
"CN(C)CCCNc1ccnc(NC(=O)Nc2ccc(Cl)c(Cl)c2)n1 [Compound 157, 1-(3,4-dichlorophenyl)-3-(4-((3-(dimethylamino)propyl)amino)pyrimidin-2-yl)urea]",500 to 5000,
"Cc1cc(NCCNC(=O)C(F)(F)F)nc(NC(=O)Nc2ccc3ccccc3c2)n1 [Compound 38, 2,2,2-trifluoro-N-(2-((6-methyl-2-(3-(naphthalen-2-yl)ureido)pyrimidin-4-yl)amino)ethyl)acetamide]",500 to 5000,
"CC(C)c1cc(NCCCN(C)C)nc(NC(=O)Nc2ccc(OC(F)(F)F)cc2)n1 [Compound 194, 1-(4-((3-(dimethylamino)propyl)amino)-6-isopropylpyrimidin-2-yl)-3-(4-(trifluoromethoxy)phenyl)urea]",,500 to 5000
"Cc1cc(NCCCN(C)C)nc(NC(=O)Nc2ccc(OC(F)(F)F)c(Cl)c2)n1 [Compound 149, 1-(3-chloro-4-(trifluoromethoxy)phenyl)-3-(4-((3-(dimethylamino)propyl)amino)-6-methylpyrimidin-2-yl)urea]",< 500,
"CNCCCNc1cc(C(C)C)nc(NC(=O)Nc2ccc3ccccc3c2)n1 [Compound 192, 1-(4-isopropyl-6-((3-(methylamino)propyl)amino)pyrimidin-2-yl)-3-(naphthalen-2-yl)urea]",,500 to 5000
"CONc1cc(C)nc(NC(=O)Nc2ccc(OC(F)(F)F)cc2)n1 [Compound 146, 1-(4-(methoxyamino)-6-methylpyrimidin-2-yl)-3-(4-(trifluoromethoxy)phenyl)urea]",500 to 5000,
Cc1cc(NCC(O)CO)nc(NC(=O)Nc2ccc3ccccc3c2)n1 (centres unmarked) [Compound 18],< 500,
"Cc1cc(NCCCN)nc(NC(=O)Nc2ccc(C(=O)c3ccccc3)cc2)n1 [Compound 155, 1-(4-((3-aminopropyl)amino)-6-methylpyrimidin-2-yl)-3-(4-benzoylphenyl)urea]",< 500,
"CC(=O)NCCCNc1cc(C)nc(NC(=O)Nc2ccc3cnccc3c2)n1 [Compound 66, N-(3-((2-(3-(isoquinolin-6-yl)ureido)-6-methylpyrimidin-4-yl)amino)propyl)acetamide]",< 500,
"Cc1cc(NCCCN(C)C)nc(NC(=O)Nc2ccc(OC(F)(F)F)c(C)c2)n1 [Compound 153, 1-(4-((3-(dimethylamino)propyl)amino)-6-methylpyrimidin-2-yl)-3-(3-methyl-4-(trifluoromethoxy)phenyl)urea]",< 500,
CNCCCN(C)c1cc(C)nc(NC(=O)Nc2ccc3ccccc3c2)n1 [Compound 9],500 to 5000,
"CC(C)c1cc(N)nc(NC(=O)Nc2ccc(OC(F)(F)F)cc2)n1 [Compound 196, 1-(4-amino-6-isopropylpyrimidin-2-yl)-3-(4-(trifluoro-methoxy)phenyl)urea]",,500 to 5000
"CC(=O)NCCCNc1cc(C)nc(NC(=O)Nc2ccc3ccccc3c2)n1 [Compound 34, N-(3-((6-methyl-2-(3-(naphthalen-2-yl)ureido)pyrimidin-4-yl)amino)propyl)acetamide]",< 500,
"CC(=O)NCCNc1cc(C)nc(NC(=O)Nc2ccc3ccccc3n2)n1 [Compound 101, N-(2-((6-methyl-2-(3-(quinolin-2-yl)ureido)pyrimidin-4-yl)amino)ethyl)acetamide]",500 to 5000,
"CC(=O)NCCNc1cc(C)nc(NC(=O)Nc2ccc(OC(C)C)cc2)n1 [Compound 140, N-(2-((2-(3-(4-isopropoxyphenyl)ureido)-6-methylpyrimidin-4-yl)amino)ethyl)acetamide]",< 500,
"CC(C)c1cc(N)nc(NC(=O)Nc2ccc3ccccc3c2)n1 [Compound 190, 1-(4-amino-6-isopropylpyrimidin-2-yl)-3-(naphthalen-2-yl)urea]",,5000 to 30000
"CN(C)CCCNc1nc(NC(=O)Nc2ccc(Cl)c(Cl)c2)ncc1F [Compound 168, 1-(3,4-dichlorophenyl)-3-(4-((3-(dimethylamino)propyl)amino)-5-fluoropyrimidin-2-yl)urea]",500 to 5000,

# Now from value to compound:
"IC50 (Table 1, 3 days incubation) [nM]","IC50 (Table 2, 3 days incubation) [nM]",Compound
< 500,,"Cc1cc(NCCO)nc(NC(=O)Nc2ccc3cnccc3c2)n1 [Compound 60, 1-(4-((2-hydroxyethyl)amino)-6-methylpyrimidin-2-yl)-3-(isoquinolin-6-yl)urea]"
500 to 5000,,"CC(=O)NCCNc1cc(C)nc(NC(=O)Nc2ccc3ccncc3c2)n1 [Compound 119, N-(2-((2-(3-(isoquinolin-7-yl)ureido)-6-methylpyrimidin-4-yl)amino)ethyl)acetamide]"
< 500,,"Cc1cc(NCCNS(C)(=O)=O)nc(NC(=O)Nc2ccc3occc3c2)n1 [Compound 86, N-(2-((2-(3-(benzofuran-5-yl)ureido)-6-methylpyrimidin-4-yl)amino)ethyl)methanesulfonamide]"
< 500,,"CNC(=O)CCNc1cc(C)nc(NC(=O)Nc2ccc3ccccc3c2)n1 [Compound 43, N-methyl-3-((6-methyl-2-(3-(naphthalen-2-yl)ureido)pyrimidin-4-yl)amino)propanamide]"
< 500,,CCNc1cc(C)nc(NC(=O)Nc2ccc3cnccc3c2)n1 [Compound 54]
500 to 5000,,"Cc1cc(NCCN(C)C)nc(NC(=O)Nc2ccc3ncccc3c2)n1 [Compound 106, 1-(4-((2-(dimethylamino)ethyl)amino)-6-methylpyrimidin-2-yl)-3-(quinolin-6-yl)urea]"
< 500,,"Cc1cc(NCCCN(C)C)nc(NC(=O)Nc2ccc3cnccc3c2)n1 [Compound 50, 1-(4-((3-(dimethylamino)propyl)amino)-6-methylpyrimidin-2-yl)-3-(isoquinolin-6-yl)urea]"
500 to 5000,,"Cc1cc(NCCN)nc(NC(=O)Nc2ccc3ccncc3c2)n1 [Compound 116, 1-(4-((2-aminoethyl)amino)-6-methylpyrimidin-2-yl)-3-(isoquinolin-7-yl)urea]"
< 500,,"Cc1cc(NCCN)nc(NC(=O)Nc2ccc3occc3c2)n1 [Compound 82, 1-(4-((2-aminoethyl)amino)-6-methylpyrimidin-2-yl)-3-(benzofuran-5-yl)urea]"
< 500,,"Cc1cc(NCCC(N)=O)nc(NC(=O)Nc2ccc3ccccc3c2)n1 [Compound 26, 3-((6-methyl-2-(3-(naphthalen-2-yl)ureido)pyrimidin-4-yl)amino)propanamide]"
< 500,,"CNCCCNc1cc(C)nc(NC(=O)Nc2ccc3cnccc3c2)n1 [Compound 64, 1-(isoquinolin-6-yl)-3-(4-methyl-6-((3-(methylamino)propyl)amino)pyrimidin-2-yl)urea]"
< 500,,"COC(=O)CCNc1cc(C)nc(NC(=O)Nc2ccc3ccccc3c2)n1 [Compound 25, methyl 3-((6-methyl-2-(3-(naphthalen-2-yl)ureido)pyrimidin-4-yl)amino)propanoate]"
500 to 5000,,"Cc1cc(NCCN(C)C)nc(NC(=O)Nc2ccc3cnccc3c2)n1 [Compound 51, 1-(4-((2-(dimethylamino)ethyl)amino)-6-methylpyrimidin-2-yl)-3-(isoquinolin-6-yl)urea]"
